“And” between values parts separate entries of the source, which are not always exact repeats. Equal values may be shown once. Read-outs that look alike come from different tables or passages of the source.
Test system: T lymphocytes (normal mouse spleen cells) stimulated with ConA
Assay: Mouse Spleen Cell ConA Blastogenesis Assay
Format: cell-based, mouse (C57Bl/6)
Settings: for inhibition at 0.01 µg/mL / inhibition at 0.001 µg/mL / inhibition at 0.1 µg/mL / inhibition at 1 µg/mL / inhibition at 2.5 µg/mL / inhibition at 10 µg/mL / inhibition at 25 µg/mL / inhibition at 100 µg/mL / inhibition at 300 µg/mL / inhibition at 750 µg/mL: Mus musculus, T-lymphocyte; for inhibition at 0.01 µg/mL: 0.01 ug/ml, read-out: % Change from Control (Table II); for inhibition at 0.001 µg/mL / inhibition at 0.1 µg/mL / inhibition at 1 µg/mL / inhibition at 2.5 µg/mL / inhibition at 10 µg/mL / inhibition at 25 µg/mL / inhibition at 100 µg/mL / inhibition at 300 µg/mL / inhibition at 750 µg/mL: read-out: % change from control, ConA blastogenic response; for strong antiproliferative effect on ConA blastogenic response: concentration not given
Source text: It is well known that several plant lectins, when cultured in vitro with lymphocytes, stimulate cellular activation and proliferation. Concanavolin, (ConA) selectively stimulates the blastogenic response of T lymphocytes.
Six to 8 week old male C57Bl/6 mice were purchased from Harlan Sprague Dawley (Indianapolis, Ind.).
Spleens were removed and were homogenized to obtain a single cell suspension. Erythrocytes were lysed by hypotonic shock. Upon determination of the viability and concentration of the lymphoid cells, they were adjusted to 4×10^6 cells/ml in culture medium (RPMI-1640) supplemented with 10% fetal bovine serum; 100 ug/ml streptomycin; 100 U/ml penicillin, 0.2M hepes buffer; 5×10^-5 M 2-mercaptoethanol and 2 mM glutamine). seeded into microtiter plate wells at 2×10^5 cells/0.050 ml/well. To these cultures were added various doses of experimental compounds and ConA at a final concentration of 4 or 1 ug/ml. Control cultures consisted of cells, ConA and culture medium containing the vehicle, DMSO only. […] For the testing of the methyl 1,3-O-isopropylidene-6-O-n-heptyl-α-D-fructofuranoside compound indomethacin and NDGA were used as controls. All cultures were run in triplicate.
Solutions of compounds of the invention in DMSO were prepared and dilutions were made in culture medium. Assay concentrations were either: 1, 2.5, 10, 25, 100, 300 and 750 ug/ml or 0.001, 0.01, 0.1, 1, 2.5, 10, 25 and 100 ug/ml.
Cultures were incubated for 3 days at 37° C. in a humidified atmosphere of 5% of CO2 in air. For the last 18 hours of culture, 1 uCi of ^3 H-thymidine was also incubated in each well. The cells were precipitated by a multi-channel harvester. The amount of ^3 H-thymidine incorporated by the cultures, as a measure of cell proliferation, was measured in a liquid scintillation counter. The amount of radioactive incorporation is proportional to the amount of cellular proliferation in individual wells. The students T test was used to determine the significance of the difference between experimental and control values.

[1] = ConA 1 ug/ml, compound 0.001 ug/ml
[2] = ConA 1 ug/ml, compound 0.1 ug/ml
[3] = ConA 1 ug/ml, compound 2.5 ug/ml
[4] = ConA 1 ug/ml, compound 10 ug/ml
[5] = ConA 1 ug/ml, compound 25 ug/ml
[6] = ConA 1 ug/ml, compound 100 ug/ml
[7] = ConA 4 ug/ml, compound 0.001 ug/ml
[8] = ConA 4 ug/ml, compound 0.1 ug/ml
[9] = ConA 4 ug/ml, compound 2.5 ug/ml
[10] = ConA 4 ug/ml, compound 10 ug/ml
[11] = ConA 4 ug/ml, compound 25 ug/ml
[12] = ConA 4 ug/ml, compound 100 ug/ml
[13] = ConA 1 ug/ml, compound 300 ug/ml
[14] = ConA 1 ug/ml, compound 750 ug/ml
[15] = ConA 4 ug/ml, compound 300 ug/ml
[16] = ConA 4 ug/ml, compound 750 ug/ml

Compound: Cc1cn([C@H]2C[C@H](N=[N+]=[N-])[C@@H](CO)O2)c(=O)[nH]c1=O [AZT, reference compound]
- Blastogenic response of normal spleen cells to Con-A [1]: 47.1 ± 4.5 × 10^-3 cpm
- Blastogenic response of normal spleen cells to Con-A (ConA 1 ug/ml, compound 0.01 ug/ml): 36.7 ± 3.1 × 10^-3 cpm
- Blastogenic response of normal spleen cells to Con-A [2]: 9.1 ± 5.8 × 10^-3 cpm
- % change from control, ConA blastogenic response (ConA 1 ug/ml, compound 1 ug/ml): -99% and -96%
- Blastogenic response of normal spleen cells to Con-A (ConA 1 ug/ml, compound 1 ug/ml): 1.7 ± 0.1 × 10^-3 cpm
- % change from control, ConA blastogenic response [3]: -98%
- Blastogenic response of normal spleen cells to Con-A [3]: 0.7 ± 0.3 × 10^-3 cpm
- % change from control, ConA blastogenic response [4]: -100% and -99%
- Blastogenic response of normal spleen cells to Con-A [4]: 0.5 ± 0.1 × 10^-3 cpm
- % change from control, ConA blastogenic response [5]: -100% and -99%
- Blastogenic response of normal spleen cells to Con-A [5]: 0.5 ± 0.2 × 10^-3 cpm
- % change from control, ConA blastogenic response [6]: -100% and -99%
- Blastogenic response of normal spleen cells to Con-A [6]: 0.3 ± 0.0 × 10^-3 cpm
- Blastogenic response of normal spleen cells to Con-A [7]: 163.7 ± 8.0 × 10^-3 cpm
- Blastogenic response of normal spleen cells to Con-A (ConA 4 ug/ml, compound 0.01 ug/ml): 158.1 × 10^-3 cpm
- Blastogenic response of normal spleen cells to Con-A [8]: 24.5 ± 3.0 × 10^-3 cpm
- % change from control, ConA blastogenic response (ConA 4 ug/ml, compound 1 ug/ml): -99% and -97%
- Blastogenic response of normal spleen cells to Con-A (ConA 4 ug/ml, compound 1 ug/ml): 4.0 ± 1.5 × 10^-3 cpm
- % change from control, ConA blastogenic response [9]: -100% and -99%
- Blastogenic response of normal spleen cells to Con-A [9]: 1.9 ± 0.4 × 10^-3 cpm
- % change from control, ConA blastogenic response [10]: -100% and -99%
- Blastogenic response of normal spleen cells to Con-A [10]: 1.4 ± 0.4 × 10^-3 cpm
- Blastogenic response of normal spleen cells to Con-A [11]: 1.3 ± 0.5 × 10^-3 cpm
- % change from control, ConA blastogenic response [12]: -99% and -100%
- Blastogenic response of normal spleen cells to Con-A [12]: 0.6 ± 0.1 × 10^-3 cpm
- inhibition at 0.01 µg/mL (ConA 1 ug/ml): 7%
- inhibition at 0.001 µg/mL [1]: 18%
- inhibition at 0.1 µg/mL [2]: 93%
- inhibition at 1 µg/mL (ConA 1 ug/ml, compound 1 ug/ml): 96%
- inhibition at 2.5 µg/mL [3]: 98%
- inhibition at 10 µg/mL [4]: 99%
- inhibition at 25 µg/mL [5]: 99%
- inhibition at 100 µg/mL [6]: 99%
- inhibition at 0.01 µg/mL (ConA 4 ug/ml): 13%
- inhibition at 0.001 µg/mL [7]: -5%
- inhibition at 0.1 µg/mL [8]: 99%
- inhibition at 1 µg/mL (ConA 4 ug/ml, compound 1 ug/ml): 97%
- inhibition at 2.5 µg/mL [9]: 99%
- inhibition at 10 µg/mL [10]: 99%
- inhibition at 25 µg/mL [11]: 99%
- inhibition at 100 µg/mL [12]: 100%

Compound: CCCCCCCSC[C@H]1OC(C)(C)O[C@@H]2[C@H]3OC(C)(C)O[C@H]3O[C@@H]21 [IIIn, 1,2:3,5-Di-O-Isopropylidene-6-deoxy-6-thio-n-heptyl-β-D-glucofuranose]
- inhibition at 1 µg/mL (ConA 1 ug/ml, compound 1 ug/ml): 4%
- inhibition at 10 µg/mL [4]: 29%
- inhibition at 25 µg/mL [5]: 27%
- inhibition at 100 µg/mL [6]: 84%
- inhibition at 300 µg/mL [13]: 99%
- inhibition at 750 µg/mL [14]: 99%
- inhibition at 1 µg/mL (ConA 4 ug/ml, compound 1 ug/ml): -1%
- inhibition at 10 µg/mL [10]: 12%
- inhibition at 25 µg/mL [11]: 16%
- inhibition at 100 µg/mL [12]: 76%
- inhibition at 300 µg/mL [15]: 99%
- inhibition at 750 µg/mL [16]: 98%
- strong antiproliferative effect on ConA blastogenic response: greater than -50 % of control

Compound: CC1(C)OC2OC3C(CSCCN4CCCC4)OC(C)(C)OC3C2O1 [IIIp, 1,2:3,5-Di-O-Isopropylidene-6-deoxy-6-thio-2'-(ethyl-N"-pyrrolidyl)-α-D-glucofuranose]
- Blastogenic response of normal spleen cells to Con-A (ConA 1 ug/ml, compound 1 ug/ml): 118,909 × 10^3 cpm
- % change from control, ConA blastogenic response [4]: -23%
- Blastogenic response of normal spleen cells to Con-A [4]: 55,282 ± 17,762 cpm
- Blastogenic response of normal spleen cells to Con-A [5]: 101,268 ± 23,586 cpm
- % change from control, ConA blastogenic response [6]: -11%
- Blastogenic response of normal spleen cells to Con-A [6]: 64,122 ± 7,847 cpm
- % change from control, ConA blastogenic response [13]: -63%
- Blastogenic response of normal spleen cells to Con-A [13]: 26,948 ± 13,540 cpm
- % change from control, ConA blastogenic response [14]: -94%
- Blastogenic response of normal spleen cells to Con-A [14]: 3,976 ± 1,922 cpm
- % change from control, ConA blastogenic response (ConA 4 ug/ml, compound 1 ug/ml): -17%
- Blastogenic response of normal spleen cells to Con-A (ConA 4 ug/ml, compound 1 ug/ml): 81,109 × 10^3 cpm
- % change from control, ConA blastogenic response [10]: -40%
- Blastogenic response of normal spleen cells to Con-A [10]: 58,381 ± 7,921 cpm
- % change from control, ConA blastogenic response [11]: -33%
- Blastogenic response of normal spleen cells to Con-A [11]: 65,424 ± 13,480 cpm
- % change from control, ConA blastogenic response [12]: -55%
- Blastogenic response of normal spleen cells to Con-A [12]: 43,864 ± 9,618 cpm
- % change from control, ConA blastogenic response [15]: -91%
- Blastogenic response of normal spleen cells to Con-A [15]: 8,310 ± 945 × 10^3 cpm
- % change from control, ConA blastogenic response [16]: -91%
- Blastogenic response of normal spleen cells to Con-A [16]: 8,402 ± 3,070 cpm
- inhibition at 10 µg/mL [4]: 23%
- inhibition at 100 µg/mL [6]: 11%
- inhibition at 300 µg/mL [13]: 63%
- inhibition at 750 µg/mL [14]: 94%
- inhibition at 1 µg/mL (ConA 4 ug/ml, compound 1 ug/ml): 17%
- inhibition at 10 µg/mL [10]: 40%
- inhibition at 25 µg/mL [11]: 33%
- inhibition at 100 µg/mL [12]: 55%
- inhibition at 300 µg/mL [15]: 91%
- inhibition at 750 µg/mL [16]: 91%
- strong antiproliferative effect on ConA blastogenic response: greater than -50 % of control

From patent publication US5298494A, “Monosaccharides having anti-proliferation and anti-inflammatory activity, compositions and uses thereof” (Greenwich Pharmaceuticals Incorporated, priority 1993, dated 1994)
